{
  "source": "paper PMC6008465",
  "about": "(British Journal of Cancer, 2018)",
  "key": {"cyclin D1": {"test_system": "cyclin D1", "conditions": "quoted in discussion, no reference given, cited from earlier work"}, "[1]": {"test": "Part A pharmacokinetics (plasma and urine, noncompartmental analysis)", "type": "in vivo, human", "protocol": "In Part A, blood was collected on Cycle 1, Days 1 and 15 at specified intervals prior to, during, and postinfusion (5 min–8 h), and on Days 2, 3, 16, and 17 (24 and 48 h postinfusion). Urine was collected on Cycle 1, Day 1 preinfusion, at 0–8 h, and 8–24 h. In Part B, blood was collected on Cycle 1, Day 1, prior to, during, and at 1–24 h postinfusion. Pharmacokinetic parameters were calculated using noncompartmental analysis."}, "[2]": {"conditions": "Cycle 1 Day 1, 160 mg/m^2 (n=3)"}, "[3]": {"conditions": "Cycle 1 Day 1, 320 mg/m^2 (n=7)"}, "[4]": {"conditions": "Cycle 1 Day 1, 400 mg/m^2 (n=1)"}, "[5]": {"conditions": "Cycle 1 Day 1, 480 mg/m^2 (n=4)"}, "[6]": {"conditions": "Cycle 1 Day 15, 20 mg/m^2 (n=3)"}, "[7]": {"conditions": "Cycle 1 Day 15, 40 mg/m^2 (n=3)"}},
  "note": "Marks after values point to notes of the source that are not given here.",
  "data": [
    {"smiles": "CCNc1cc(O)c2c(c1)/C=C/C[C@H](O)[C@H](O)C(=O)/C=C\\[C@@H](C)[C@H](C)OC2=O", "note": "[E6201, (3S,4R,5Z,8S,9S,11E)-14-(ethylamino)-8,9,16-trihydroxy-3,4-dimethyl-3,4,9,19-tetrahydro-1H-2-benzoxacyclotetradecine-1,7 (8H)-dione]", "values": [
      {"measurement": "IC50 for inhibition of cyclin D1", "setting": "cyclin D1", "value": 1.87, "unit": "ng/mL"},
      {"measurement": "IC50", "setting": "cyclin D1; read-out: IC50 for inhibition of cyclin D1", "value": 4.8, "unit": "nM"},
      {"measurement": "Fraction of E6201 excreted in the urine", "setting": "[1]; 24-hour collection interval", "value": "≤ 0.21", "unit": "%"},
      {"measurement": "AUC(0-t), mean (%CV)", "setting": "[1]; Cycle 1 Day 1, 20 mg/m^2 (n=4)", "value": "1650 (218) ng·h/mL"},
      {"measurement": "CLR (renal clearance), mean (%CV)", "setting": "[1]; Cycle 1 Day 1, 20 mg/m^2 (n=4)", "value": "10.0 (188) mL/h"},
      {"measurement": "Cmax, mean (%CV)", "setting": "[1]; Cycle 1 Day 1, 20 mg/m^2 (n=4)", "value": "552 (50) ng/mL"},
      {"measurement": "Tmax, median (range)", "setting": "[1]; Cycle 1 Day 1, 20 mg/m^2 (n=4)", "value": "0.5 (0.25–0.5) h"},
      {"measurement": "fe (fraction of drug excreted in urine), mean (%CV)", "setting": "[1]; Cycle 1 Day 1, 20 mg/m^2 (n=4)", "value": "0.0125 (42) %"},
      {"measurement": "t½, mean", "setting": "[1]; Cycle 1 Day 1, 20 mg/m^2, n=2", "value": "1.96^b (--) h"},
      {"measurement": "CL, mean (%CV)", "setting": "[1]; Cycle 1 Day 1, 20 mg/m^2, n=2, %CV 2", "value": "110^b (2) L/h"},
      {"measurement": "Vss, mean (%CV)", "setting": "[1]; Cycle 1 Day 1, 20 mg/m^2, n=2, %CV 28", "value": "135^b (28) L"},
      {"measurement": "AUC(0-t), mean (%CV)", "setting": "[1]; Cycle 1 Day 1, 40 mg/m^2 (n=3)", "value": "2410 (201) ng·h/mL"},
      {"measurement": "CLR (renal clearance), mean (%CV)", "setting": "[1]; Cycle 1 Day 1, 40 mg/m^2 (n=3)", "value": "1.65 (--) mL/h"},
      {"measurement": "Cmax, mean (%CV)", "setting": "[1]; Cycle 1 Day 1, 40 mg/m^2 (n=3)", "value": "870 (70) ng/mL"},
      {"measurement": "Tmax, median (range)", "setting": "[1]; Cycle 1 Day 1, 40 mg/m^2 (n=3)", "value": "0.5 (0.5–0.5) h"},
      {"measurement": "fe (fraction of drug excreted in urine), mean (%CV)", "setting": "[1]; Cycle 1 Day 1, 40 mg/m^2 (n=3)", "value": "0 (--) %"},
      {"measurement": "t½, mean", "setting": "[1]; Cycle 1 Day 1, 40 mg/m^2, n=2", "value": "2.70^b (--) h"},
      {"measurement": "Vss, mean (%CV)", "setting": "[1]; Cycle 1 Day 1, 40 mg/m^2, n=2, %CV 21", "value": "164^b (21) L"},
      {"measurement": "CL, mean (%CV)", "setting": "[1]; Cycle 1 Day 1, 40 mg/m^2, n=2, %CV 25", "value": "103^b (25) L/h"},
      {"measurement": "AUC(0-t), mean (%CV)", "setting": "[1]; Cycle 1 Day 1, 80 mg/m^2 (n=3)", "value": "2520 (63) ng·h/mL"},
      {"measurement": "CL, mean (%CV)", "setting": "[1]; Cycle 1 Day 1, 80 mg/m^2 (n=3)", "value": "68.7 (60) L/h"},
      {"measurement": "CLR (renal clearance), mean (%CV)", "setting": "[1]; Cycle 1 Day 1, 80 mg/m^2 (n=3)", "value": "28.9 (54) mL/h"},
      {"measurement": "Cmax, mean (%CV)", "setting": "[1]; Cycle 1 Day 1, 80 mg/m^2 (n=3)", "value": "3350 (149) ng/mL"},
      {"measurement": "Tmax, median (range)", "setting": "[1]; Cycle 1 Day 1, 80 mg/m^2 (n=3)", "value": "0.5 (0.25–0.5) h"},
      {"measurement": "Vss, mean (%CV)", "setting": "[1]; Cycle 1 Day 1, 80 mg/m^2 (n=3)", "value": "135 (100) L"},
      {"measurement": "fe (fraction of drug excreted in urine), mean (%CV)", "setting": "[1]; Cycle 1 Day 1, 80 mg/m^2 (n=3)", "value": "0.04 (26) %"},
      {"measurement": "t½, mean", "setting": "[1]; Cycle 1 Day 1, 80 mg/m^2 (n=3)", "value": "2.79 (--) h"},
      {"measurement": "AUC(0-t), mean (%CV)", "setting": "[1]; [2]", "value": "2770 (36) ng·h/mL"},
      {"measurement": "CL, mean (%CV)", "setting": "[1]; [2]", "value": "119 (50) L/h"},
      {"measurement": "CLR (renal clearance), mean (%CV)", "setting": "[1]; [2]", "value": "89.7 (299) mL/h"},
      {"measurement": "Cmax, mean (%CV)", "setting": "[1]; [2]", "value": "2740 (51) ng/mL"},
      {"measurement": "Tmax, median (range)", "setting": "[1]; [2]", "value": "0.5 (0.25–0.5) h"},
      {"measurement": "Vss, mean (%CV)", "setting": "[1]; [2]", "value": "216 (55) L"},
      {"measurement": "fe (fraction of drug excreted in urine), mean (%CV)", "setting": "[1]; [2]", "value": "0.0567 (186) %"},
      {"measurement": "t½, mean", "setting": "[1]; [2]", "value": "3.98 (--) h"},
      {"measurement": "AUC(0-t), mean (%CV)", "setting": "[1]; [3]", "value": "10400 (26) ng·h/mL"},
      {"measurement": "CL, mean (%CV)", "setting": "[1]; [3]", "value": "57.2 (22) L/h"},
      {"measurement": "CLR (renal clearance), mean (%CV)", "setting": "[1]; [3]", "value": "60.0 (659) mL/h"},
      {"measurement": "Cmax, mean (%CV)", "setting": "[1]; [3]", "value": "14800 (73) ng/mL"},
      {"measurement": "Tmax, median (range)", "setting": "[1]; [3]", "value": "0.25 (0.25–0.5) h"},
      {"measurement": "Vss, mean (%CV)", "setting": "[1]; [3]", "value": "89.1 (36) L"},
      {"measurement": "fe (fraction of drug excreted in urine), mean (%CV)", "setting": "[1]; [3]", "value": "0.109 (56) %"},
      {"measurement": "t½, mean", "setting": "[1]; [3]", "value": "4.00 (--) h"},
      {"measurement": "AUC(0-t), mean (%CV)", "setting": "[1]; [4]", "value": "13500 (--) ng·h/mL"},
      {"measurement": "CL, mean (%CV)", "setting": "[1]; [4]", "value": "52.8 (--) L/h"},
      {"measurement": "CLR (renal clearance), mean (%CV)", "setting": "[1]; [4]", "value": "111 (--) mL/h"},
      {"measurement": "Cmax, mean (%CV)", "setting": "[1]; [4]", "value": "19500 (--) ng/mL"},
      {"measurement": "Tmax, median (range)", "setting": "[1]; [4]", "value": "0.25 (0.25–0.25) h"},
      {"measurement": "Vss, mean (%CV)", "setting": "[1]; [4]", "value": "80.1 (---) L"},
      {"measurement": "fe (fraction of drug excreted in urine), mean (%CV)", "setting": "[1]; [4]", "value": "0.21 (--) %"},
      {"measurement": "t½, mean", "setting": "[1]; [4]", "value": "6.50 (--) h"},
      {"measurement": "AUC(0-t), mean (%CV)", "setting": "[1]; [5]", "value": "10200 (56) ng·h/mL"},
      {"measurement": "CL, mean (%CV)", "setting": "[1]; [5]", "value": "101 (44) L/h"},
      {"measurement": "CLR (renal clearance), mean (%CV)", "setting": "[1]; [5]", "value": "137 (128) mL/h"},
      {"measurement": "Cmax, mean (%CV)", "setting": "[1]; [5]", "value": "8070 (55) ng/mL"},
      {"measurement": "Tmax, median (range)", "setting": "[1]; [5]", "value": "0.375 (0.25–0.5) h"},
      {"measurement": "Vss, mean (%CV)", "setting": "[1]; [5]", "value": "275 (42) L"},
      {"measurement": "fe (fraction of drug excreted in urine), mean (%CV)", "setting": "[1]; [5]", "value": "0.143 (96) %"},
      {"measurement": "t½, mean", "setting": "[1]; [5]", "value": "5.97 (--) h"},
      {"measurement": "AUC(0-t), mean (%CV)", "setting": "[1]; [6]", "value": "1420 (250) ng·h/mL"},
      {"measurement": "Cmax, mean (%CV)", "setting": "[1]; [6]", "value": "895 (228) ng/mL"},
      {"measurement": "Tmax, median (range)", "setting": "[1]; [6]", "value": "0.5 (0.25–0.5) h"},
      {"measurement": "CL, mean (%CV)", "setting": "[1]; Cycle 1 Day 15, 20 mg/m^2, n=1", "value": "184^c (--) L/h"},
      {"measurement": "Vss, mean (%CV)", "setting": "[1]; Cycle 1 Day 15, 20 mg/m^2, n=1", "value": "324^ c (--) L"},
      {"measurement": "t½, mean", "setting": "[1]; Cycle 1 Day 15, 20 mg/m^2, n=1", "value": "1.58^c (--) h"},
      {"measurement": "AUC(0-t), mean (%CV)", "setting": "[1]; [7]", "value": "2090 (169) ng·h/mL"},
      {"measurement": "Cmax, mean (%CV)", "setting": "[1]; [7]", "value": "767 (78) ng/mL"},
      {"measurement": "Tmax, median (range)", "setting": "[1]; [7]", "value": "0.5 (0.25–0.5) h"},
      {"measurement": "t½, mean", "setting": "[1]; Cycle 1 Day 15, 40 mg/m^2, n=2", "value": "1.88^ b (--) h"},
      {"measurement": "Vss, mean (%CV)", "setting": "[1]; Cycle 1 Day 15, 40 mg/m^2, n=2, %CV 27", "value": "115^b (27) L"},
      {"measurement": "CL, mean (%CV)", "setting": "[1]; Cycle 1 Day 15, 40 mg/m^2, n=2, %CV 47", "value": "91^b (47) L/h"},
      {"measurement": "AUC(0-t), mean (%CV)", "setting": "[1]; Cycle 1 Day 15, 80 mg/m^2 (n=3)", "value": "2540 (66) ng·h/mL"}
    ]}
  ]
}
